The results in this text go back to US20170044372A1, “CELL TRACKING REAGENTS AND THEIR METHODS OF USE” (LIFE TECHNOLOGIIES CORPORATION, priority 2014, published 2017).

The data set relates to HeLa cells. The data set is described as follows: CYQUANT Direct cytotoxicity / cell viability assay. The format is cell-based. Conditions: 96 well plate, labeled at 10 μM for 30 mins at 37° C. in LCIS, assayed on days 1, 2 and 3, compared to DMSO alone. As for the experimental part:
FIG. 2: Lack of cytotoxicity of Compound 10, as measured by the CYQUANT Direct (Thermo Fisher Scientific) method. Fluorescence on the Y-axis is proportional to cell population viability. HeLa cells plated in a 96 well plate were labeled with CELLTRACKER Red, Compound 10, or DMSO in Live Cell Imaging Solution (LCIS) at 10 μM concentration for 30 mins at 37° C. The LCIS was then aspirated from cells and complete media added for an overnight incubation. The following day (Day 1) cells were assayed for cytotoxicity using the CYQUANT Direct assay (Thermo Fisher Scientific).
A549, HeLa and U-2 OS cells were plated in a 24-well plate at a concentration of 2000 cells/well. Compound 10 was added at a final concentration of 10 μM in Live Cell Imaging Solution (Life Technologies Corporation, Carlsbad, Calif.) and incubated for 30-60 min at 37° C. Cells were washed in dPBS and the cell media was added. Cells were scanned using the scan routine on an EVOS FL Auto microscope (Thermo Fisher Scientific) for 10% of the middle of the well. The same scan routine was used on Days 2, 3 and 4 of growth. Cell viability was assessed using CYQUANT Direct (Thermo Fisher Scientific) using the same scan routine as described above. The results in HeLa cells can be seen in FIGS. 1 and 2.

Turning to `CN(C)c1ccc2c(-c3ccc(C(=O)ON4C(=O)CCC4=O)cc3C(=O)O)c3ccc(=[N+](C)C)cc-3oc2c1` [Compound 10], the “cytotoxicity as measured by the CYQUANT Direct method (fluorescence proportional to cell population viability)” value is reported as “no cytotoxicity”.
